Patent US7863449B2, “Modulators of muscarinic receptors” (Vertex Pharmaceuticals Incorporated, priority 2004, dated 2011)
Where a name gives a salt, the structure may show the parent alone.

Columns and labels:
M1 muscarinic receptor = target: T1, M1 muscarinic receptor (Homo sapiens, UniProt P11229); assay: Functional mobilization of intracellular calcium (FLIPR), M1-CHO cells; type: cell-based; conditions: for Emax: 100% efficacy is the maximum response obtained using Carbachol as a control; for M1 Activity: M1-CHO cells, FLIPR calcium mobilization
T1 construct: expressed in transfected cells; host or cells: CHO (M1-CHO)
T1 sequence (P11229 1-460): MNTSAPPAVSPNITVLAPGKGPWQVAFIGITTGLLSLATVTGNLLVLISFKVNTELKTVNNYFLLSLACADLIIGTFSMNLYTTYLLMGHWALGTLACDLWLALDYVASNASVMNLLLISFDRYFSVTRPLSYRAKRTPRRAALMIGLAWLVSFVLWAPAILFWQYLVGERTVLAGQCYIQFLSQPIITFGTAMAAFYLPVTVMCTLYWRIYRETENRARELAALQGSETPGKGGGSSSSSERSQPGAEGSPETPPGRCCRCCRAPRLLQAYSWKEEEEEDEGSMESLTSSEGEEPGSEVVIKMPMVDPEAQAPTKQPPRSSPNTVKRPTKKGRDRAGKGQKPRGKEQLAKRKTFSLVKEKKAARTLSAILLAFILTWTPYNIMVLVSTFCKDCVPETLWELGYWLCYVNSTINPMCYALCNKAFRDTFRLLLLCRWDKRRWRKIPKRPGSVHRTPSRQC
Method: (§1) Functional Mobilization of Intracellular Calcium to Determine Muscarinic Receptor Activity:
(§2) CHO cells expressing muscarinic receptors (M1 to M5) are grown as monolayers in tissue culture flasks at 37° C. in a humidified atmosphere containing 5% CO2 and passaged every 3-5 days. The growth media is Dulbecco's modified eagles medium (DMEM, Gibco Cat# 12430-054), containing 25 mM Hepes and supplemented with Fetal Bovine Serum (Hyclone, cat# SH30071.03), 0.1 mM of MEM non-essential amino acids (GIBCO, Cat# 11140-050), 1 mM MEM Sodium Pyruvate (GIBCO Cat# 11360-070) and 100 units/ml of Penicillin G and 100 μg/ml of Streptomycin (GIBCO Cat# 15140-122). The recombinant muscarinic receptor cell lines are grown under antibiotic pressure with media containing 25 μg/ml zeocin and 500 μg/ml G418 (M1-CHO), 4 μg/ml puromycin, 50 μg/ml zeocin and 2.5 μg/ml blasticidin (M2 and M4-CHO) or 50 μg/ml zeocin and 4 μg/ml puromycin (M3 and M5-CHO).
(§3) Cells are harvested at 80-90% confluence using Versene (GIBCO Cat# 15040-066), collected by centrifugation and seeded 18-24 hrs prior to running the calcium assay at a density of 5,000-10,000 cells/well in […], clear-bottomed 384-well plates (BD Biocoat, poly-D-lysine, Cat#356663). The day of the experiment, the cells are washed with a plate washer (Bioteck Instruments, ELX 405) using bath1 buffer (140-mM NaCl, 4.5-mM KCl, 2-mM CaCl2, 1-mM MgCl2, 10-mM Hepes-Na, 10-mM Glucose, pH 7.4, with NaOH) containing 1 mM Probenecid. Next, the calcium dye Fluo-3 (25 μl/well of Fluo-3 AM at 4 μM, Molecular Probes F-1241, in Bath 1 buffer containing 1 mM Probenecid) is added to the 25 μl of Bath 1 remaining in each well after the plate wash and the dye is loaded at 37° C. in the tissue culture incubator for 60-90 min. The fluorescent dye is removed using the plate washer with Bath 1 containing 1 mM Probenecid, leaving 25 μl/well of this solution after the wash. Alternatively, cells can be loaded with the calcium indicator from Molecular Devices (Calcium 3 Assay Reagents, Cat # R7181) adding 5 μl of a 5× solution dye in Bath 1 containing 1 mM Probenecid (10 ml per dye flask cat# R7182 to generate a solution 20×) to 20 μl of the same buffer. After loading for 60 min, the experiment can be run without having to remove the dye.
(§4) Compounds are prepared at a 2× fold concentration in a 96-well plate (round bottom, Costar Corning cat# 3656), by reconstituting the pre-spotted compounds in bath 1 containing 1 mM probenecid. The final concentration DMSO is 0.5%, and the amount of DMSO is normalized across the assay plate. To determine an agonist action of the compounds on muscarinic receptors, the reconstituted compounds are added (25 μl compound/well) to the cell assay plate (containing 25 μl/well) using the multi-channel robotic system of the FLIPR 3 Instrument (Molecular Devices, Sunnyvale, Calif.). To determine a functional inhibitory action of the compounds on muscarinic receptors, the reconstituted compounds are added (25 μl compound/well) to the assay plate and pre-incubated for 15 min prior to adding 25 μl of Carbachol at 3× the EC80 for each muscarinic subtype. Alternatively, the compounds can be co-applied simultaneously with the agonist. In both assay modes, the fluorescence is recorded for 60 sec (excitation wavelength is […] and emission wavelength 540 nm) using the FLIPR 3 instrument.
(§5) The potency, efficacy and selectivity of the muscarinic compounds were evaluated by screening the compound activity across the whole family (M1 to M5 cells). Compounds were also screened for activity on other proteins such as other GPCRs and ion channels to determine selectivity on M4 receptors.

M4 muscarinic receptor = target: T2, M4 muscarinic receptor (Homo sapiens, UniProt P08173); assay: Functional mobilization of intracellular calcium (FLIPR), M4-CHO cells; type: cell-based; conditions: for Emax: 100% efficacy is the maximum response obtained using Carbachol as a control; for M4 Activity: M4-CHO cells, FLIPR calcium mobilization
T2 construct: expressed in transfected cells; host or cells: CHO (M4-CHO)
T2 sequence (P08173 1-479): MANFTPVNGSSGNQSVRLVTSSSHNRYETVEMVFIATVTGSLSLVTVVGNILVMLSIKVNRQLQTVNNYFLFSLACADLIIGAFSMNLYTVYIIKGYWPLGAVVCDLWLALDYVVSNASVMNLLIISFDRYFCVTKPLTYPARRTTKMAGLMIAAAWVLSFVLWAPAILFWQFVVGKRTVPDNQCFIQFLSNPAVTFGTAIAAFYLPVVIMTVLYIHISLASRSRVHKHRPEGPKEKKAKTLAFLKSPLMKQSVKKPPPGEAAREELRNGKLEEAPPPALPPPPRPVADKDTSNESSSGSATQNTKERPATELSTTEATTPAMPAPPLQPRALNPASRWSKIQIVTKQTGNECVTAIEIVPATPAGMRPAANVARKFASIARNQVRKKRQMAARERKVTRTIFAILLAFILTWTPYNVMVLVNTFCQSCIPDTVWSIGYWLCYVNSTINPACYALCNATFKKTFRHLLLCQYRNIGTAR
Method: as §1, §2, §3, §4, §5

Row | Structure (SMILES) | Emax (M1 muscarinic receptor) | M1 Activity (M1 muscarinic receptor) | Emax (M4 muscarinic receptor) | M4 Activity (M4 muscarinic receptor)
1 | CCOC(=O)N1CCC(C)(CN2CCC3(CC2)CN(C(C)=O)Cc2ccccc23)CC1 [compound 103, ethyl 4-((2-acetyl-2,3-dihydro-1H-spiro[isoquinoline-4,4′-piperidine]-1′-yl)methyl)-4-methylpiperidine-1-carboxylate hydrochloride] | 25 to 100% | +++ (activity was measured to be less than 1.0 μM) | 25 to 100% | +++ (activity was measured to be less than 1.0 μM)
2 | CCOC(=O)N1C2CCC1CC(N1CCC3(CC1)CN(S(=O)(=O)c1cccs1)Cc1ccccc13)C2 (stereo not shown) [compound 316] | 25 to 100% | +++ (activity was measured to be less than 1.0 μM) | 25 to 100% | +++ (activity was measured to be less than 1.0 μM)
3 | COCCOC(=O)N1CCC(CN2CCC3(CC2)CN(C(C)=O)Cc2ccccc23)CC1 [compound 207] | 25 to 100% | + (activity was measured to be greater than 5.0 μM) | 25 to 100% | ++ (activity was measured to be from 1.0 μM to 5.0 μM)
4 | CCCCOC(=O)N1Cc2ccccc2C2(CCN(C3CC4CCC(C3)N4C(=O)OCC)CC2)C1 (stereo not shown) [compound 148] | 25 to 100% | +++ (activity was measured to be less than 1.0 μM) | 25 to 100% | +++ (activity was measured to be less than 1.0 μM)
5 | CCOC(=O)N1CCC(CN2CCC3(CC2)CN(C(=O)OC(C)C)Cc2ccccc23)CC1 [compound 309] | 25 to 100% | +++ (activity was measured to be less than 1.0 μM) | 25 to 100% | +++ (activity was measured to be less than 1.0 μM)
6 | CN(C)S(=O)(=O)N1Cc2ccccc2C2(CCN(C3CC4CCC(C3)N4C(=O)O[C@@H]3CCOC3)CC2)C1 (stereo partly shown) [compound 3] | 25 to 100% | +++ (activity was measured to be less than 1.0 μM) | 25 to 100% | +++ (activity was measured to be less than 1.0 μM)
7 | COC(=O)N1Cc2ccccc2C2(CCN(C3CC4CCC(C3)N4C(=O)OC(C)C)CC2)C1 (stereo not shown) [compound 206] | 25 to 100% | +++ (activity was measured to be less than 1.0 μM) | 25 to 100% | +++ (activity was measured to be less than 1.0 μM)
8 | CC(=O)N1Cc2ccccc2C2(CCN(C3CCCCC3)CC2)C1 [compound 294] | 25 to 100% | +++ (activity was measured to be less than 1.0 μM) | 25 to 100% | +++ (activity was measured to be less than 1.0 μM)
9 | CCOC(=O)N1CCC(N2CCC3(CC2)CN(C(=O)OC2CCCC2)Cc2ccccc23)CC1 [compound 164] | 25 to 100% | +++ (activity was measured to be less than 1.0 μM) | 25 to 100% | +++ (activity was measured to be less than 1.0 μM)
10 | CCOC(=O)N1CCC(CN2CCC3(CC2)CN(C(=O)C2CC2)Cc2ccccc23)CC1 [compound 208] | 25 to 100% | +++ (activity was measured to be less than 1.0 μM) | 25 to 100% | +++ (activity was measured to be less than 1.0 μM)
11 | CCOC(=O)N1CCC(N2CCC3(CC2)CN(C(=O)C2CCC2)Cc2ccccc23)CC1 [compound 250] | 25 to 100% | +++ (activity was measured to be less than 1.0 μM) | 25 to 100% | +++ (activity was measured to be less than 1.0 μM)
12 | CCOC(=O)N1CCC(N2CCC3(CC2)CN(C(=O)C(C)C)Cc2ccccc23)CC1 [compound 279] | 25 to 100% | +++ (activity was measured to be less than 1.0 μM) | 25 to 100% | +++ (activity was measured to be less than 1.0 μM)
13 | COCCN1CCC2(CC1)CN(C(C)=O)Cc1ccccc12 [compound 89] | < 25% | + (activity was measured to be greater than 5.0 μM) | < 25% | + (activity was measured to be greater than 5.0 μM)
